Measured values published in patent US20190350240A1, “Electrolyte-Enhanced Sweetener and Consumable Products Obtained” (priority 2018, published 2019).
Entries after “also recorded” stand apart in the source; their conditions may differ.

Legend:
[1] = Salt Screen #2: thick and heavy flavor before unpleasant off-flavor (taste, TAS); format: in vivo
Excerpt: The second salt screen that was employed tested whether each electrolyte salt could elicit a thick and heavy flavor before it elicited an unpleasant off-flavor, such as saltiness, bitterness, or chalkiness.

[2] = in sweetener compositions exposed to ambient air (hygroscopicity)
Excerpt: The third salt screen that was employed tested whether each electrolyte salt could enhance the flavor of sweetener compositions and remain shelf stable when exposed to ambient air. This screen is related to the water solubility of the salt. When salts have too much water solubility, they can become hygroscopic which means they absorb water from ambient air. Hygroscopic salts become wet and clumpy when exposed to ambient air, and they cause sweetener compositions containing them to become difficult to package and dispense because of this instability to air exposure.
This third salt screen is complementary to the first salt screen because it identifies salts with too much water solubility, while the first salt screen identifies salts with too little water solubility.

[3] = Salt Screen #4: compatibility (CMP) in sweetened cold-brewed coffee and tea; format: in vivo; details: sweetener compositions in cold-brewed coffee and tea, pH-sensitive flavors
Method: The fourth salt screen that was employed tested whether each electrolyte salt could enhance the sweetener compositions used to sweeten cold-brewed coffee and tea without disturbing the flavors of these pH-sensitive beverages. The disturbance of pH-sensitive flavors is an important screen because many electrolyte salts influence the pH of the beverages to which they are added. This screen was only applied to the five electrolyte salts that passed the three earlier salt screens.

[4] = Carbohydrate screen: flavor at strength of 10% sucrose in water, and mixed with the sweetener composition; format: in vivo; details: dissolved into one liter of water to a strength of 10% sucrose
Method: Natural sugars and sugar alcohols were screened from commercial sources as candidates for the carbohydrate composition. Refined and unrefined cane sugar, brown sugar, cane juice sugar, maple sugar, coconut sugar, glucose, fructose, and erythritol were dissolved into one liter of water to a strength of 10% sucrose and evaluated for flavor.
Both refined and unrefined cane sugar solutions were mixed with solutions containing the sweetener composition mixed to a strength of 10% sucrose.

[5] = cool drinking water, without lengthy stirring or heating
Excerpt: The first salt screen that was employed tested whether each electrolyte salt had sufficient water solubility. The screen tested whether each salt could dissolve sufficiently into cool drinking water and […] without the need for lengthy stirring or heating.

[6] = Sugar-like flavor judged by taste judges in water versus 10% or 20% sucrose (taste, intensity, thickness, total); format: in vivo; details: for improvement in sugar-like flavor: at optimal dose or ratio, versus starting composition without the added ingredient (zero mg/L; pure S1); for optimal level for sugar-like flavor: potassium in 1300 mg/L HPS, sodium in 1300 mg/L HPS + 200 mg/L potassium
Excerpt: The compositions and methods that embody this invention describe how to form electrolyte-enhanced sweetener compositions that better reproduce the flavor of natural sugar with negligible calories and with favorable physical properties. According to these methods, sugar-like flavor was defined by the numerical consensus of four criteria which were sugar-like taste, intensity, thickness, and compatibility and will be described below.
The four criteria were quantified numerically as four percentile scores. Scores of 100% represented the complete and satisfying reproduction of each criterion of sugar-like flavor. For reference, naturally-refined cane sugar received percentile scores of 100% across all criteria because of how the criteria were defined.
Taste (TAS) The criterion of sugar-like taste encompasses how well a sweetener reproduces the taste of sugar at a high level of sweetness corresponding to a 10% sucrose solution. Ten percent sucrose is equivalent to a 12-ounce soft drink (355 milliliters) sweetened with 36 grams of sucrose. For reference, the sweet taste of sugar develops and recedes across the entire tongue with each tasting in a characteristic way. The time profile of sugar's sweetness is something we generally take for granted until we taste a sweetener with a different time profile that makes it taste unnatural and unsatisfying.
According to a preferred embodiment of this invention, the tastes of sweetener compositions (TAS) were compared to 10% sucrose and evaluated based on the following taste and olfactory flavor properties: • 1. Sweetness across the entire tongue and not in throat; • 2. Rapid onset of sweetness without delay; • 3. Rapid decay of sweetness without lingering after-taste; • 4. Sweetness without bitterness; • 5. Subtle caramel flavor without off-flavors.
Intensity (INT) The criterion of sugar-like intensity represents how well a sweetener reproduces the same five taste properties of sugar (represented by TAS) but at a very high level of sweetness typical in desserts. Drinking water sweetened with 20% sucrose is used as a taste reference for evaluating INT.
Thickness (THK) The criterion of sugar-like thickness represents how well a sweetener reproduces the thick texture of sugar-sweetening that becomes syrupy at higher dose levels. Drinking water samples sweetened with 10% sucrose and with 20% sucrose are used as taste references for evaluating THK.
Total (TOT) The consensus of the percentile scores for the four criteria was determined by numerical averaging to form a total score of sugar-like flavor.
The first three criteria for sugar-like flavor—taste TAS, intensity INT, and thickness THK—were evaluated by taste judges who compared water sweetened to a level of either 10% or 20% sucrose to water sweetened with various sweetener compositions. A level of 10% sucrose represents the sweetness of typical soft drinks and 20% sucrose represents the sweetness of typical desserts.
Taste judges initially evaluated the sugar-like taste TAS and thickness THK of sweetener compositions at the sweetness level of typical soft drinks. They rinsed their mouths with plain water and then evaluated a 100 mL sample of 10% sucrose solution. They took a 15 mL aliquot of the sample into the mouth and swished it around for about 15 seconds. For each mouthful, they evaluated the time course of sweetness onset and decay, natural sugar flavors, off-flavors, and thickness, and they expelled the aliquot into a waste receptacle. Judges continued taking a series of mouthfuls up to a total volume of 100 mL to evaluate the changes in flavor perception from one mouthful to the next related to the natural loss of perceived sweetness, flavor, and thickness of sugar solutions. This protocol was then repeated for each 100 mL sample of spring water sweetened with various sweetener compositions. […]

[7] = thick and heavy flavor before saltiness, bitterness or chalkiness

SMILES: O=C([O-])[O-].[Ca+2] [Calcium Carbonate, calcium carbonate]
- Does the Electrolyte Salt Have Suitable Taste (TAS)? ([1]; in vivo): NO, Develops chalky and dry flavor; also recorded: tasted chalky

SMILES: [Ca+2].[Cl-].[Cl-] [Calcium Chloride, calcium chloride]
- Does the Electrolyte Salt Have Suitable Taste (TAS)? ([1]; in vivo): Yes

SMILES: CC(O)C(=O)[O-].CC(O)C(=O)[O-].[Ca+2] (stereo not shown) [Calcium Lactate, calcium lactate]
- Does the Electrolyte Salt have Suitable Shelf Stability? [2]: Yes
- Does the Electrolyte Salt Have Suitable Taste (TAS)? [1, 7]: Yes
- Does the Electrolyte Salt have Suitable Compatibility (CMP)? [3]: NO, Develops sour/chalky flavor
- Does the Electrolyte Salt have Suitable Compatibility (CMP)? ([3]; listed as calcium lactate): sour and chalky

SMILES: OC[C@@H](O)[C@@H](O)CO [Erythritol, erythritol]
- flavor evaluation of carbohydrate candidates [4]: drying sensation on the tongue or cooling sensation on the throat

SMILES: O=C(CO)[C@@H](O)[C@H](O)[C@H](O)CO [Fructose, fructose]
- flavor evaluation of carbohydrate candidates [4]: lose its sweetness at higher temperatures

SMILES: [Cl-].[Cl-].[Mg+2] [Magnesium Chloride, magnesium chloride]
- Does the Electrolyte Salt Have Suitable Taste (TAS)? ([1]; in vivo): Yes

SMILES: O=S(=O)([O-])[O-].[Mg+2] [Magnesium Sulfate, magnesium sulfate]
- Does the Electrolyte Salt Have Suitable Taste (TAS)? ([1]; in vivo): NO, Develops sour and dry flavor; also recorded: tasted sour

SMILES: [Cl-].[K+] [Potassium Chloride, potassium chloride]
- Does the Electrolyte Salt Have Suitable Solubility? [5]: Yes
- Does the Electrolyte Salt have Suitable Shelf Stability? [2]: Yes
- improvement in sugar-like flavor [6]: about 10%
- optimal level for sugar-like flavor [6]: 200 mg/L
- Does the Electrolyte Salt Have Suitable Taste (TAS)? [1, 7]: Yes
- Does the Electrolyte Salt have Suitable Compatibility (CMP)? [3]: Yes
- Does the Electrolyte Salt have Suitable Compatibility (CMP)? ([3]; listed as Potassium chloride): passed

SMILES: O=C([O-])O.[Na+] [Sodium Bicarbonate, sodium bicarbonate]
- Does the Electrolyte Salt Have Suitable Taste (TAS)? [1, 7]: Yes
- Does the Electrolyte Salt have Suitable Compatibility (CMP)? [3]: NO, Develops sour/chalky flavor
- Does the Electrolyte Salt have Suitable Compatibility (CMP)? ([3]; listed as sodium carbonate): sour and chalky

SMILES: [Cl-].[Na+] [Sodium Chloride, sodium chloride]
- taste of sweetened, potassium-enriched water with sodium chloride ([6]; HPS 1300 mg/L, potassium 200 mg/L, dietary sodium level of 150 grams per liter (so in the source)): thick and only mildly salty
- taste of sweetened, potassium-enhanced water with sodium chloride ([6]; HPS 1300 mg/L, potassium 200 mg/L, sodium level of 600 mg/L): unacceptably salty
- improvement in sugar-like flavor [6]: about 5%
- optimal level for sugar-like flavor [6]: 40 mg/L
- Does the Electrolyte Salt Have Suitable Taste (TAS)? [1, 7]: Yes
- Does the Electrolyte Salt have Suitable Compatibility (CMP)? [3]: Yes
- Does the Electrolyte Salt have Suitable Compatibility (CMP)? ([3]; listed as sodium chloride): passed

SMILES: O=P([O-])(O)O.[Na+] [Sodium Phosphate Monobasic, sodium phosphate monobasic]
- Does the Electrolyte Salt have Suitable Shelf Stability? [2]: Yes
- Does the Electrolyte Salt Have Suitable Taste (TAS)? [1, 7]: Yes
- Does the Electrolyte Salt have Suitable Compatibility (CMP)? [3]: NO, Develops sour/chalky flavor
- Does the Electrolyte Salt have Suitable Compatibility (CMP)? ([3]; listed as sodium phosphate monobasic): sour and chalky
